Results on four molecules are retold here after ChEMBL document CHEMBL3045273, “Synthesis, characterization, and pharmacological evaluation of 1-[2-(6-nitro-4-oxo-2-phenyl-4H-quinazolin-3-yl)-ethyl]-3-phenyl ureas” (2013).

Test [1] relates to Candida albicans. As to the kind of experiment: Antifungal activity against Candida albicans ATCC 66027 assessed as growth inhibition at 20 ug/ml after 24 hr by Kirby-Bauer disk diffusion method. Format: functional. As to conditions: ATCC 66027, 24 h, read-out: DIZ. On the technique in general: A growth-free zone around the sample is the usual read-out of agar diffusion tests.

Test [2] concerns Escherichia coli. As to the kind of experiment: Antibacterial activity against Escherichia coli ATCC 25922 assessed as growth inhibition at 70 ug/ml after 24 hr by Kirby-Bauer disk diffusion method. To be noted: ATCC 25922, 24 h, read-out: DIZ. It counts as functional.
For test [3], the system named is Candida albicans. Nature of the test: Antifungal activity against Candida albicans ATCC 66027 assessed as growth inhibition at 300 ug/ml after 24 hr by Kirby-Bauer disk diffusion method. Format: functional. To be noted: ATCC 66027, 24 h, read-out: DIZ.
Test [4] concerns Bacillus subtilis. Nature of the test: Antibacterial activity against Bacillus subtilis ATCC 11774 assessed as growth inhibition at 300 ug/ml after 24 hr by Kirby-Bauer disk diffusion method. It counts as functional. To be noted: ATCC 11774, 24 h, read-out: DIZ.
Test [5] concerns Pseudomonas aeruginosa. As to the kind of experiment: Antibacterial activity against Pseudomonas aeruginosa ATCC 27853 assessed as growth inhibition at 300 ug/ml after 24 hr by Kirby-Bauer disk diffusion method. Format: functional. As to conditions: ATCC 27853, 24 h, read-out: DIZ.
The subject of test [6] is Staphylococcus aureus. As to the kind of experiment: Antibacterial activity against Staphylococcus aureus ATCC 25923 assessed as growth inhibition at 300 ug/ml after 24 hr by Kirby-Bauer disk diffusion method. Format: functional. As to conditions: ATCC 25923, 24 h, read-out: DIZ.
For test [7], the system named is Candida albicans. As to the kind of experiment: Antifungal activity against Candida albicans ATCC 66027 assessed as growth inhibition at 100 ug/ml after 24 hr by Kirby-Bauer disk diffusion method. Format: functional. As to conditions: ATCC 66027, 24 h, read-out: DIZ.
In test [8] the test system is Bacillus subtilis. Nature of the test: Antibacterial activity against Bacillus subtilis ATCC 11774 assessed as growth inhibition at 100 ug/ml after 24 hr by Kirby-Bauer disk diffusion method. To be noted: ATCC 11774, 24 h, read-out: DIZ. Format: functional.
The test system of test [9] is Staphylococcus aureus. As to the kind of experiment: Antibacterial activity against Staphylococcus aureus ATCC 25923 assessed as growth inhibition at 100 ug/ml after 24 hr by Kirby-Bauer disk diffusion method. It counts as functional. To be noted: ATCC 25923, 24 h, read-out: DIZ.
Test [10] has as its system Pseudomonas aeruginosa. As to the kind of experiment: Antibacterial activity against Pseudomonas aeruginosa ATCC 27853 assessed as growth inhibition at 100 ug/ml after 24 hr by Kirby-Bauer disk diffusion method. Format: functional. As to conditions: ATCC 27853, 24 h, read-out: DIZ.
In test [11] the test system is Bacillus subtilis. As to the kind of experiment: Antibacterial activity against Bacillus subtilis ATCC 11774 assessed as initial concentration required for appearance of zone of inhibition after 24 hr. It counts as functional.
The subject of test [12] is Candida albicans. Nature of the test: Antifungal activity against Candida albicans ATCC 66027 assessed as initial concentration required for appearance of zone of inhibition after 24 hr. Format: functional.
In test [13] the test system is Staphylococcus aureus. Nature of the test: Antibacterial activity against Staphylococcus aureus ATCC 25923 assessed as initial concentration required for appearance of zone of inhibition after 24 hr. Format: functional.
The subject of test [14] is Pseudomonas aeruginosa. As to the kind of experiment: Antibacterial activity against Pseudomonas aeruginosa ATCC 27853 assessed as initial concentration required for appearance of zone of inhibition after 24 hr. It counts as functional.
Test [15] relates to Escherichia coli. Nature of the test: Antibacterial activity against Escherichia coli ATCC 25922 assessed as initial concentration required for appearance of zone of inhibition after 24 hr. Format: functional.
Test [16] relates to Candida albicans. As to the kind of experiment: Antifungal activity against Candida albicans ATCC 66027 assessed as growth inhibition after 24 hr by serial broth dilution method. It counts as functional. To be noted: ATCC 66027, 24 h. (In general: Broth dilution looks for growth in wells or tubes with falling amounts of substance.)
In test [17] the test system is Bacillus subtilis. Nature of the test: Antibacterial activity against Bacillus subtilis ATCC 11774 assessed as growth inhibition after 24 hr by serial broth dilution method. It counts as functional. As to conditions: ATCC 11774, 24 h.
Test [18] has as its system Pseudomonas aeruginosa. As to the kind of experiment: Antibacterial activity against Pseudomonas aeruginosa ATCC 27853 assessed as growth inhibition after 24 hr by serial broth dilution method. It counts as functional. As to conditions: ATCC 27853, 24 h.
Test [19] relates to Staphylococcus aureus. As to the kind of experiment: Antibacterial activity against Staphylococcus aureus ATCC 25923 assessed as growth inhibition after 24 hr by serial broth dilution method. As to conditions: ATCC 25923, 24 h. It counts as functional.
Test [20] relates to Escherichia coli. As to the kind of experiment: Antibacterial activity against Escherichia coli ATCC 25922 assessed as growth inhibition after 24 hr by serial broth dilution method. Format: functional. To be noted: ATCC 25922, 24 h.
The subject of test [21] is Escherichia coli. As to the kind of experiment: microbe, parasite or virus in culture. As to conditions: ATCC 25922, 24 h, read-out: DIZ.
Description: Antibacterial activity against Escherichia coli ATCC 25922 assessed as growth inhibition at 300 ug/ml after 24 hr by Kirby-Bauer disk diffusion method
For test [22], the system named is Escherichia coli. Nature of the test: microbe, parasite or virus in culture. As to conditions: ATCC 25922, 24 h, read-out: DIZ. This is another data set of the same source.
Description: Antibacterial activity against Escherichia coli ATCC 25922 assessed as growth inhibition at 100 ug/ml after 24 hr by Kirby-Bauer disk diffusion method
Test [23] relates to Escherichia coli. As to the kind of experiment: Antibacterial activity against Escherichia coli ATCC 25922 assessed as growth inhibition at 40 ug/ml after 24 hr by Kirby-Bauer disk diffusion method. It counts as functional. As to conditions: ATCC 25922, 24 h, read-out: DIZ.

≈ marks a conversion by molar mass, not a printed value.

As a reminder, the MIC is the least concentration at which growth counts as inhibited.

For `CC1CCC(NC(=O)NCCn2c(-c3ccccc3)nc3ccc([N+](=O)[O-])cc3c2=O)CC1` (stereo not given), in [1], the zone of inhibition at 20 µg/mL is 11 mm. Also, in test [2], the zone of inhibition at 70 µg/mL turned out to be 11 mm. For the same molecule, the zone of inhibition at 300 µg/mL in [3] came to 20 mm; in [4] it was 14 mm; in [5], 21 mm; in test [6], 14 mm; in test [21], 17 mm. The zone of inhibition at 100 µg/mL came to 15 mm in [7]; 11 mm in test [8]; 11 mm in test [9]; 12 mm in test [10]; 13 mm in test [22]. Moreover, the Activity in [11] was found to be 100 µg/mL; in test [12] it was 20 µg/mL; in [13], 100 µg/mL; in [14], 70 µg/mL; in test [15], 70 µg/mL. Also, the MIC in test [16] turned out to be 10 µg/mL (≈ 22.2 µM); in test [17], 100 µg/mL (≈ 222 µM); in [18] it was 70 µg/mL (≈ 156 µM); in test [19], 100 µg/mL (≈ 222 µM); in test [20], 40 µg/mL (≈ 89 µM).
Regarding `O=C(NCCn1c(-c2ccccc2)nc2ccc([N+](=O)[O-])cc2c1=O)Nc1ccccc1Cl`, the zone of inhibition at 70 µg/mL in test [2] stood at 11 mm. The zone of inhibition at 300 µg/mL is 20 mm in test [3]; 15 mm in [4]; 19 mm in test [5]; 14 mm in [6]; 18 mm in [21]. Besides, the zone of inhibition at 100 µg/mL stood at 16 mm in test [7]; 12 mm in test [8]; 11 mm in test [9]; 13 mm in test [10]; 14 mm in test [22]. Besides, the Activity in test [11] worked out at 70 µg/mL; in test [12], 40 µg/mL; in test [13], 100 µg/mL; in test [14] it was 70 µg/mL; in [15] it was 70 µg/mL. Besides, the MIC in [16] is 20 µg/mL (≈ 43.1 µM); in test [17] it was 70 µg/mL (≈ 151 µM); in test [18] it was 100 µg/mL (≈ 216 µM); in [19], 100 µg/mL (≈ 216 µM); in [20], 70 µg/mL (≈ 151 µM).
Take `Cc1ccccc1NC(=O)NCCn1c(-c2ccccc2)nc2ccc([N+](=O)[O-])cc2c1=O`: the zone of inhibition at 40 µg/mL in test [23] is 11 mm. Also, the zone of inhibition at 300 µg/mL was found to be 19 mm in [3]; 14 mm in [4]; 18 mm in [5]; 14 mm in [6]; 16 mm in [21]. For the same molecule, the zone of inhibition at 100 µg/mL came out at 16 mm in test [7]; 11 mm in test [8]; 12 mm in test [9]; 12 mm in [10]; 13 mm in [22]. For the same molecule, the Activity in test [11] amounted to 100 µg/mL; in [12], 20 µg/mL; in [13], 70 µg/mL; in [14], 70 µg/mL; in test [15], 40 µg/mL. Moreover, the MIC came to 20 µg/mL (≈ 45.1 µM) in test [16]; 70 µg/mL (≈ 158 µM) in test [17]; 40 µg/mL (≈ 90.2 µM) in test [18]; 70 µg/mL (≈ 158 µM) in [19]; 40 µg/mL (≈ 90.2 µM) in test [20].
In the case of `Cc1ccc(NC(=O)NCCn2c(-c3ccccc3)nc3ccc([N+](=O)[O-])cc3c2=O)cc1`, in test [23], the zone of inhibition at 40 µg/mL is 11 mm. In addition, the zone of inhibition at 300 µg/mL in [3] came to 17 mm; in test [4], 15 mm; in test [5] it was 17 mm; in [6] it was 14 mm; in test [21], 17 mm. In addition, the zone of inhibition at 100 µg/mL came to 14 mm in test [7]; 12 mm in [8]; 12 mm in [9]; 12 mm in test [10]; 14 mm in test [22]. For the same molecule, the Activity came out at 70 µg/mL in test [11]; 20 µg/mL in test [12]; 70 µg/mL in [13]; 70 µg/mL in test [14]; 40 µg/mL in test [15]. In addition, the MIC in [16] is 20 µg/mL (≈ 45.1 µM); in [17], 70 µg/mL (≈ 158 µM); in [18] it was 70 µg/mL (≈ 158 µM); in test [19], 70 µg/mL (≈ 158 µM); in [20] it was 40 µg/mL (≈ 90.2 µM).
